ChEMBL document CHEMBL3616440, “Non-basic azolotriazinone MCHR1 antagonists for the treatment of obesity: An empirical brain-exposures-driven candidate selection for in vivo efficacy studies” (Bioorg Med Chem Lett, 2015)
One block for each molecule: values may come before it.

Key:
[1] = tested on: Plasma; assay: Fraction unbound in Sprague-Dawley rat plasma assessed as 6-(4-chlorophenyl)-3-(4-(2-hydroxypropoxy)-3-methoxyphenyl)pyrrolo[1,2-f][1,2,4]triazin-4(3H)-one level; type: ADME, cell-free
[2] = tested on: Rattus norvegicus; assay: Antiobesity activity in Sprague-Dawley rat assessed as body weight reduction at 3 mg/kg, po qd after 4 days relative to control; type: functional; conditions: 96 h
[3] = tested on: Liver; assay: Prodrug conversion in oral-dosed Sprague-Dawley rat liver assessed as 3-(4-(6-(4-chlorophenyl)-4-oxopyrrolo[1,2-f][1,2,4]triazin-3(4H)-yl)-2-methoxyphenoxy)-2-hydroxypropanoic acid formation; type: ADME, tissue-based; conditions: in vivo
[4] = tested on: Brain; assay: Drug concentration in Sprague-Dawley rat brain assessed as 6-(4-chlorophenyl)-3-(4-(2-hydroxypropoxy)-3-methoxyphenyl)pyrrolo[1,2-f][1,2,4]triazin-4(3H)-one level at 30 mg/kg, po qd after 10 days; type: ADME, organism-based; conditions: in vivo, 240 h, read-out: Drug uptake
[5] = tested on: Rattus norvegicus; assay: Toxicity in Sprague-Dawley rat assessed as biliary lesion at 10 mg/kg, po qd for 10 days; type: organism-based; conditions: in vivo, 240 h
[6] = tested on: Rattus norvegicus; assay: Antiobesity activity in Sprague-Dawley rat assessed as body weight reduction at 10 mg/kg, po qd after 4 days relative to control; type: functional; conditions: 96 h
[7] = tested on: Brain; assay: Free drug level in Sprague-Dawley rat brain assessed as 6-(4-chlorophenyl)-3-(4-(2-hydroxypropoxy)-3-methoxyphenyl)pyrrolo[1,2-f][1,2,4]triazin-4(3H)-one level at 30 mg/kg, po qd at 20 hrs; type: ADME, organism-based; conditions: in vivo
[8] = tested on: Brain; assay: Drug concentration in Sprague-Dawley rat brain assessed as 6-(4-chlorophenyl)-3-(4-(2-hydroxypropoxy)-3-methoxyphenyl)pyrrolo[1,2-f][1,2,4]triazin-4(3H)-one level at 3 mg/kg, po qd after 10 days; type: ADME, organism-based; conditions: in vivo, 240 h, read-out: Drug uptake
[9] = tested on: Rattus norvegicus; assay: Antiobesity activity in Sprague-Dawley rat assessed as body weight reduction at 30 mg/kg, po qd after 4 days relative to control; type: functional; conditions: 96 h
[10] = tested on: Brain; assay: Drug concentration in Sprague-Dawley rat brain assessed as 6-(4-chlorophenyl)-3-(4-(2-hydroxypropoxy)-3-methoxyphenyl)pyrrolo[1,2-f][1,2,4]triazin-4(3H)-one level at 10 mg/kg, po qd after 10 days; type: ADME, organism-based; conditions: in vivo, 240 h, read-out: Drug uptake
[11] = Ratio of free drug level in brain of Sprague-Dawley rat assessed as 6-(4-chlorophenyl)-3-(4-(2-hydroxypropoxy)-3-methoxyphenyl)pyrrolo[1,2-f][1,2,4]triazin-4(3H)-one level at 30 mg/kg, po to Ki for rat MCHR1; type: ADME, organism-based; conditions: in vivo
[12] = tested on: Liver; assay: Prodrug conversion in oral-dosed Sprague-Dawley rat liver assessed as 6-(4-chlorophenyl)-3-(4-(2,3-dihydroxypropoxy)-3-methoxyphenyl)pyrrolo[1,2-f][1,2,4]triazin-4(3H)-one formation; type: ADME, tissue-based; conditions: in vivo
[13] = tested on: Brain; assay: Drug concentration in Sprague-Dawley rat brain assessed as 6-(4-chlorophenyl)-3-(4-(2-hydroxy-2-methylpropoxy)-3-methoxyphenyl)thieno[3,2-d]pyrimidin-4(3H)-one level at 10 mg/kg, po qd at 20 hrs; type: ADME, organism-based; conditions: in vivo, read-out: Drug uptake
[14] = tested on: Rattus norvegicus; assay: Toxicity in oral-dosed Sprague-Dawley rat assessed as biliary lesion after 30 days; type: organism-based; conditions: in vivo, 720 h
[15] = target: Melanin-concentrating hormone receptor 1 (Rattus norvegicus) (UniProt P97639); conditions: 10 uM
Sequence of Melanin-concentrating hormone receptor 1 (Rattus norvegicus) (P97639 whole entry): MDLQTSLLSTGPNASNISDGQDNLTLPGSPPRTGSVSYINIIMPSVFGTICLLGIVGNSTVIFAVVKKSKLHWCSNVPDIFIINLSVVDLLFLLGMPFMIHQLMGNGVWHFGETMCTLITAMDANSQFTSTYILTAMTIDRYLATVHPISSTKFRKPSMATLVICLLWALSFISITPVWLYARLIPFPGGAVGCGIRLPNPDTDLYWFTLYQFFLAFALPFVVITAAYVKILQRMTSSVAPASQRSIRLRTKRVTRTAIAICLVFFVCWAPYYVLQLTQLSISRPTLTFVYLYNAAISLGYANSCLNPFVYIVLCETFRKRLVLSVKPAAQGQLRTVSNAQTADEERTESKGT
Description: Displacement of [125I][Phe13,Tyr19]-MCH from rat MCHR1 at 10 uM by scintillation counting analysis

[16] = target: Melanin-concentrating hormone receptor 1 (Homo sapiens, UniProt Q99705); assay: Antagonist activity at human MCHR1 expressed in HEK293 cells assessed as inhibition of MCH-induced Ca2+ influx for 120 mins by FLIPR assay; type: functional, cell-based
Sequence of Melanin-concentrating hormone receptor 1 (Homo sapiens, UniProt Q99705) (Q99705 whole entry): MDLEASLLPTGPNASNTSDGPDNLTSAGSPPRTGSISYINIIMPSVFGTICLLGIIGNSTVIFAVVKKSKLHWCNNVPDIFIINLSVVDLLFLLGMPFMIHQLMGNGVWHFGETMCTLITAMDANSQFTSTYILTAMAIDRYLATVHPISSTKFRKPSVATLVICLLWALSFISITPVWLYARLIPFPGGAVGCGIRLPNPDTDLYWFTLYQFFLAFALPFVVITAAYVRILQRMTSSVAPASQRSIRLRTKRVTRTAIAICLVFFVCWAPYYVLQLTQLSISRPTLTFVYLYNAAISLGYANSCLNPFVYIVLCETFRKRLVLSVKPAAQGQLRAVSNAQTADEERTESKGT

[17] = target: Melanin-concentrating hormone receptor 1 (Rattus norvegicus, UniProt P97639); assay: Displacement of [125I][Phe13,Tyr19]-MCH from rat MCHR1 by scintillation counting analysis
Sequence of Melanin-concentrating hormone receptor 1 (Rattus norvegicus, UniProt P97639) (P97639 whole entry): as the sequence (P97639 whole entry) above

[18] = tested on: Brain; assay: Free drug level in Sprague-Dawley rat brain assessed as 6-(5-chloropyridin-2-yl)-3-(4-((3,3-difluoro-1-hydroxycyclobutyl)methoxy)-3-methoxyphenyl)pyrrolo[1,2-f][1,2,4]triazin-4(3H)-one level at 10 mg/kg, po qd at 20 hrs; type: ADME, organism-based; conditions: in vivo
[19] = tested on: Brain; assay: Free drug level in Sprague-Dawley rat brain assessed as 6-(5-chloropyridin-2-yl)-3-(4-((3,3-difluoro-1-hydroxycyclobutyl)methoxy)-3-methoxyphenyl)pyrrolo[1,2-f][1,2,4]triazin-4(3H)-one level at 30 mg/kg, po qd at 20 hrs; type: ADME, organism-based; conditions: in vivo
[20] = tested on: Brain; assay: Drug concentration in Sprague-Dawley rat brain assessed as 6-(5-chloropyridin-2-yl)-3-(4-((3,3-difluoro-1-hydroxycyclobutyl)methoxy)-3-methoxyphenyl)pyrrolo[1,2-f][1,2,4]triazin-4(3H)-one level at 30 mg/kg, po qd at 20 hrs; type: ADME, organism-based; conditions: in vivo, read-out: Drug uptake
[21] = tested on: Brain; assay: Drug concentration in Sprague-Dawley rat brain assessed as 6-(5-chloropyridin-2-yl)-3-(4-((3,3-difluoro-1-hydroxycyclobutyl)methoxy)-3-methoxyphenyl)pyrrolo[1,2-f][1,2,4]triazin-4(3H)-one level at 10 mg/kg, po qd at 20 hrs; type: ADME, organism-based; conditions: in vivo, read-out: Drug uptake
[22] = Ratio of free drug level in brain of Sprague-Dawley rat assessed as 6-(5-chloropyridin-2-yl)-3-(4-((3,3-difluoro-1-hydroxycyclobutyl)methoxy)-3-methoxyphenyl)pyrrolo[1,2-f][1,2,4]triazin-4(3H)-one level at 30 mg/kg, po to Ki for rat MCHR1; type: ADME, organism-based; conditions: in vivo
[23] = tested on: Brain; assay: Drug concentration in Sprague-Dawley rat brain assessed as 6-(5-chloropyridin-2-yl)-3-(4-((3,3-difluoro-1-hydroxycyclobutyl)methoxy)-3-methoxyphenyl)pyrrolo[1,2-f][1,2,4]triazin-4(3H)-one level at 3 mg/kg, po qd at 20 hrs; type: ADME, organism-based; conditions: in vivo, read-out: Drug uptake
[24] = tested on: Nucleic Acid; assay: Ratio of drug level in Sprague-Dawley rat brain to plasma assessed as 6-(5-chloropyridin-2-yl)-3-(4-((3,3-difluoro-1-hydroxycyclobutyl)methoxy)-3-methoxyphenyl)pyrrolo[1,2-f][1,2,4]triazin-4(3H)-one level at 10 mg/kg, po qd; type: ADME, organism-based
[25] = tested on: Plasma; assay: Plasma concentration in Sprague-Dawley rat assessed as 6-(5-chloropyridin-2-yl)-3-(4-((3,3-difluoro-1-hydroxycyclobutyl)methoxy)-3-methoxyphenyl)pyrrolo[1,2-f][1,2,4]triazin-4(3H)-one level at 10 mg/kg, po qd at 8 hrs; type: ADME, organism-based; conditions: in vivo
[26] = Ratio of free drug level in brain of Sprague-Dawley rat assessed as 6-(5-chloropyridin-2-yl)-3-(4-((3,3-difluoro-1-hydroxycyclobutyl)methoxy)-3-methoxyphenyl)pyrrolo[1,2-f][1,2,4]triazin-4(3H)-one level at 10 mg/kg, po to Ki for rat MCHR1; type: ADME, organism-based; conditions: in vivo
[27] = Ratio of free drug level in brain of Sprague-Dawley rat assessed as 6-(5-chloropyridin-2-yl)-3-(4-((3,3-difluoro-1-hydroxycyclobutyl)methoxy)-3-methoxyphenyl)pyrrolo[1,2-f][1,2,4]triazin-4(3H)-one level at 3 mg/kg, po to Ki for rat MCHR1; type: ADME, organism-based; conditions: in vivo
[28] = tested on: Brain; assay: Free drug level in Sprague-Dawley rat brain assessed as 6-(5-chloropyridin-2-yl)-3-(4-((3,3-difluoro-1-hydroxycyclobutyl)methoxy)-3-methoxyphenyl)pyrrolo[1,2-f][1,2,4]triazin-4(3H)-one level at 3 mg/kg, po qd at 20 hrs; type: ADME, organism-based; conditions: in vivo
[29] = tested on: Brain; assay: Drug concentration in Sprague-Dawley rat brain assessed as 6-(5-chloropyridin-2-yl)-3-(4-((3,3-difluoro-1-hydroxycyclobutyl)methoxy)-3-methoxyphenyl)pyrrolo[1,2-f][1,2,4]triazin-4(3H)-one level at 10 mg/kg, po qd at 8 hrs; type: ADME, organism-based; conditions: in vivo, read-out: Drug uptake
[30] = tested on: Plasma; assay: Fraction unbound in Sprague-Dawley rat plasma assessed as 6-(5-chloropyridin-2-yl)-3-(4-((3,3-difluoro-1-hydroxycyclobutyl)methoxy)-3-methoxyphenyl)pyrrolo[1,2-f][1,2,4]triazin-4(3H)-one level; type: ADME, cell-free

Fu [1]: 0.4%
Drug metabolism [3]: 46 µM
concentration [4]: 20.8 µM
Drug uptake(free) [7]: 8.4 nM
concentration [8]: 4.12 µM
concentration [10]: 12.9 µM
Ratio [11]: 6
Drug metabolism [12]: 6 µM
Structure (SMILES): COc1cc(-n2cnn3cc(-c4ccc(Cl)cc4)cc3c2=O)ccc1OCC(C)OC(=O)[C@@H](N)C(C)C (stereo partly drawn)
inhibition in vivo at 3 mg/kg [2]: 2.6%
Activity [5]: Toxic
inhibition in vivo at 10 mg/kg [6]: 3.9%
inhibition in vivo at 30 mg/kg [9]: 7.6%

Structure (SMILES): COc1cc(-n2cnc3cc(-c4ccc(Cl)cc4)sc3c2=O)ccc1OCC(C)(C)O
concentration [13]: 1.61 µM
Activity [14]: Toxic
inhibition [15]: > 90%
IC50 [16]: 0.016 µM
Ki [17]: 0.0072 µM

Drug uptake(free) [18]: 616 nM
Drug uptake(free) [19]: 624 nM
concentration [20]: 23.9 µM
concentration [21]: 16 µM
Ratio [22]: <= 3.7
concentration [23]: 3.87 µM
BPR [24]: 0.6
concentration [25]: 5.59 µM
Ratio [26]: <= 2.5
Ratio [27]: <= 0.6
Drug uptake(free) [28]: 63.9 nM
concentration [29]: 3.59 µM
Fu [30]: <= 0.1%
Structure (SMILES): COc1cc(-n2cnn3cc(-c4ccc(Cl)cn4)cc3c2=O)ccc1OCC1(OC(=O)CN)CC(F)(F)C1
inhibition in vivo at 3 mg/kg [2]: 1.6%
inhibition in vivo at 10 mg/kg [6]: 4.4%
inhibition in vivo at 30 mg/kg [9]: 13%
